From patent US20100273835A1, “NOVEL COMPOUNDS” (PROBIODRUG AG, priority 2007, published 2010) come the findings set out here.

In assay [1] the target is T1, Recombinant human prolyl oligopeptidase (Homo sapiens, UniProt P48147).
T1 construct: made in house; host or cells: E. coli
T1 sequence (P48147 1-710): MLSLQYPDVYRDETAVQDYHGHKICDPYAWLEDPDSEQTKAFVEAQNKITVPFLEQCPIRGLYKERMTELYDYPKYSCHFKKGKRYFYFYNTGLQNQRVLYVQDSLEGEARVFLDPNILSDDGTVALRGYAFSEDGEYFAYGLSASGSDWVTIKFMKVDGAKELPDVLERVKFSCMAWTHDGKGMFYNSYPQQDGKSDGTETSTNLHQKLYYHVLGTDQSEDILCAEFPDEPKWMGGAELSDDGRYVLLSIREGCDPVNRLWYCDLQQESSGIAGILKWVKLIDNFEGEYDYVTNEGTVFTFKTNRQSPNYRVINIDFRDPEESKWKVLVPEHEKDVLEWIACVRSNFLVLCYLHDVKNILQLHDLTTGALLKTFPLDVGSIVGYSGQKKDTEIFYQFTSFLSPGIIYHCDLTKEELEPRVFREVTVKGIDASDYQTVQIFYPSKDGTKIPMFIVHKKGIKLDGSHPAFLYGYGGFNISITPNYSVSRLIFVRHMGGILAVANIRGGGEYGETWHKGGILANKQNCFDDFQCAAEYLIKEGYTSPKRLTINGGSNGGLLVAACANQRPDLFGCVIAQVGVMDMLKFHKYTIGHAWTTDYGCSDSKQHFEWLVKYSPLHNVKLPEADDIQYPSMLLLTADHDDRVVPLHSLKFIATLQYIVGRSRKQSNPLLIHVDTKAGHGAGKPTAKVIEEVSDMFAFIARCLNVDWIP
The assay can be described thus: Determination of IC50- and Ki-values of PEP-inhibitors, chromogenic substrate Cbz-Gly-L-Pro-pNA. It is filed as biochemical. Conditions: substrate 0.15 mM, HEPES buffer pH 7.6, 30° C.; n.i. means no inhibition. As to the method: Recombinant human prolyl oligopeptidase was used for measurement. Recombinant expression was performed in E. coli under standard conditions as described elsewhere in the state of the art.
For activity measurements the chromogenic substrate Cbz-Gly-L-Pro-pNA was used in HEPES buffer pH 7.6 containing 50 mM HEPES, 200 mM NaCl, 1 mM EDTA, 1 mM DTT, 0.006% Brij35. Measurements were carried out at 30° C. Release of pNA were monitored continuously at 405 nm.
IC50 values were calculated using non-linear regression to a 4-parameter equation (Prism 4.0, GraphPad).
For Ki determination 4 substrate (0.15 mM, 0.08 mM 0.04 mM, 0.02 mM) and 7 inhibitor concentrations in an appropriate range were used. Calculations were performed by multiple non-linear regression analysis to the equation for competitive inhibition using GraFit 5.0 Software (Erithacus Software).

Assay [2] relates to beta-amyloid peptides 1-40 and 1-42, U-343 and SH-SY5Y cells. The assay can be described thus: Beta-amyloid ELISA, secreted beta-amyloid peptides in conditioned medium. Type of assay: cell-based. Conditions: Homo sapiens; inhibitor 20 μM, 24 hours; untreated = 100%; FIG. 2: Abeta 1-42, SH-SY5Y cells; read-out: Extracellular Abeta-concentration % of control. As for the experimental part:
(§1) The human glioma cell line, U-343 and the human neuroblastoma cell line, SH-SY5Y were maintained in Dulbecco's modified Eagle's medium (DMEM) containing 10% fetal bovine serum (Gibco BRL, Karlsruhe, Germany) and incubated at 37° C. in a 5% CO2 atmosphere. Culture media contained in general 60 μg/ml gentamycin (Gibco BRL, Karlsruhe, Germany).
To quantify intracellular and extracellular concentrations of beta-amyloid peptides, 1-40 and 1-42, U-343 and SH-SY5Y cells were cultured in 6 well plates (1.5×10^6 cells/well) and treated with specific PEP inhibitors (20 μM each) for 24 hours. For quantitation of secreted beta-amyloid peptides the conditioned medium was collected and concentrated by lyophylisation. Likewise, after determination of the cell numbers/well (casy cell counter I, Schärfe System, Reutlingen, Germany), cells were lyzed with cell extraction buffer (Biosource, Solingen, Germany) according to the manufacturer's protocol. The protein concentration was determined by the method of Bradford (1976). Aliquots of 100 μl were used to quantify beta-amyloid peptides 1-40 and 1-42 in quadruplicate by ELISA (IBL, Hamburg, Germany) following the manufacturer's instructions. All obtained intracellular and extracellular concentrations were normalized to cell numbers and protein concentration, respectively.
For the calculation of the concentration of beta-amyloid peptides 1-40 and 1-42 in the cell culture medium after PEP-inhibitor treatment, the basal concentration of beta-amyloid peptides 1-40 and 1-42 in the cell culture medium of untreated cell samples was set to 100%. The results of the measurement of the concentration of beta-amyloid peptides 1-40 and 1-42 with PEP-inhibitor treated cells are presented as % of the untreated cell samples.

Assay [3] concerns basal secretion of IL-6, human glial U-343 cells. The experiment in a line: IL-6 ELISA, basal secretion of IL-6 into conditioned medium. Type of assay: cell-based. Conditions: inhibitor 20 μM, 24 hours, serum-free medium, untreated = 100%, read-out: Extracellular IL-6 concentration, % of untreated cells. As for the experimental part: To analyze basal secretion of IL-6, human glial U-343 cells were cultured in 6 well plates (1.5×10^6 cells/well, Greiner) and treated with specific PEP inhibitors as indicated (20 μM each) for 24 hours in serum-free D-MEM medium (Invitrogen). Aliquots of 40 μl conditioned medium were used to quantify the amount of secreted IL-6 by an human-specific IL-6 ELISA (Biosource) following the manufacturer's instructions. All data were obtained in quadruplicate. For the calculation of the IL-6 concentration in the cell culture medium after PEP-inhibitor treatment, the basal IL-6 concentration of the cell culture medium of untreated cell samples was set to 100%. The results of the measurement of the IL-6 concentration with PEP-inhibitor treated cells are presented as % of the untreated cell samples.
as §1

Turning to `CC(C)(C)OC(=O)N[C@@H](Cc1ccc(I)cc1)C(=O)c1nccs1` [Example 23, 2-[Boc-L-(p-Iodo)Phe]Thiazole], in assay [1], the “IC50 PEP (M)” value is recorded as “n.i”. Further, the activity at 20 µM in assay [2] amounted to 210%; in assay [3] it was 41%.
Turning to `C[C@H](NC(=O)OCc1ccccc1)C(=O)c1nc2ccccc2s1` [Example 6, 2-[Cbz-L-Ala]Benzothiazole], the IC50 in assay [1] is 4.5 µM. For the same molecule, the activity at 20 µM in assay [2] amounted to 114%; in assay [3], 36%.

The IC50 is the concentration needed to halve the response being measured.
